Experimental data from PMC8012331, “Drug-induced hepatic steatosis in absence of severe mitochondrial dysfunction in HepaRG cells: proof of multiple mechanism-based toxicity” (Cell Biology and Toxicology, 2020).

How the values were obtained:
[1] = test system: apolipoprotein B (APOB); experiment: RT-qPCR APOB mRNA in HepaRG cells; assay type: cell-based, human; settings: 4 days
Protocol: (§1) Total RNA was extracted with the Nucleospin RNA isolation system purchased from Macherey-Nagel (Düren, Germany), which included a DNase treatment step. Quantification of isolated RNAs was assessed using a Nanodrop 1000 (Thermo Fisher Scientific, Waltham, MA). RNAs were reverse-transcribed into cDNAs using the High-Capacity cDNA Reverse Transcription Kit purchased from Applied Biosystems (Woolston, UK). Gene expression was assessed by real-time quantitative PCR analysis (RT-qPCR) using SYBR Green PCR Master Mix (Applied Biosystems) and a 384-well QuantStudio™ 7 Flex Real-Time PCR System (Thermo Fisher Scientific). Sequences of the primers used to measure gene expression are presented in Supplementary Table 3. Expression of GAPDH was chosen as reference and the 2^−ΔΔCt calculation method was used to express the relative expression of each selected gene.

[2] = test system: HepaRG cells; experiment: Neutral lipids with Nile red in HepaRG cells; settings: 4 days
Protocol: Briefly, HepaRG cells were seeded in 96-well plates at a density of 2.6 × 10^4 cells/cm^2 and were first incubated in William’s E medium supplemented with 10% FBS (50% FBS from Eurobio and 50% FBS from GE Healthcare), 100 U/mL penicillin, 100 μg/mL streptomycin, 2 mM glutamine, 5 μg/mL insulin, and 50 μM hydrocortisone hemisuccinate. […] During this 1-month period, the culture medium was renewed three times a week. […] HepaRG cells were next cultured in the same FBS/DMSO conditions and incubated for 4 days with each drug at different concentrations. Culture medium was renewed every day and all investigations were performed after 96 h (i.e., 24 h after the fourth treatment). These investigations were mostly performed in 96-well plates except for western blot analysis, for which 6-well plates were used. Experiments were carried out on passages 9 to 16. All drugs (except DPEN), etomoxir, lomitapide, tunicamycin, thapsigargin, and TUDCA were dissolved in DMSO. DPEN was dissolved in water.
Cells were then incubated with PBS containing 0.1 μg/mL Nile red for 30 min and washed once. […] For each well, four pictures were taken at a magnification of × 20 and analyzed with Columbus software (PerkinElmer) for quantification. These pictures were always taken in four different areas around the center of each well, and these areas were the same from one well to another, as programmed by the Columbus software. This software was also designed to count only living cells after exclusion of dying cells harboring nuclei with abnormal shape or altered Hoechst intensity. […] Neutral lipids were then normalized per number of nuclei and expressed relative to control cells. Examples of images used for neutral lipid quantification are shown in Supplementary Fig. 2.

[3] = test system: apoB secretion; experiment: apoB level in culture medium (ELISA), HepaRG cells; assay type: cell-based, human; settings: 4 days; for Effect on apoB secretion: culture medium, vs control
Protocol: (§2) Experiments were carried out on passages 9 to 16. […] DPEN was dissolved in water.
Twenty-four hours after the last treatment, cell supernatants were removed and stored at − 80 °C until use for apolipoprotein measurement. ApoB level was measured using the Human Apolipoprotein B ELISA^pro kit from Mabtech (Nacka Strand, Sweden), according to the manufacturer’s instructions. Briefly, 50 μL of samples were diluted 2× in Apo ELISA buffer before a 2-h incubation in the precoated strip plates provided in the kit. The plates were washed and incubated 1 h with the biotinylated monoclonal anti-human apoB (LDL-11-biotin) antibody. The plates were then washed and incubated 1 h with a streptavidin–horseradish peroxidase conjugated antibody. After another washing, 3,3′,5,5′-tetramethylbenzidine (TMB) was used as substrate for 15 min before adding a stop solution. Absorbance at 450 nm was then measured using a POLARstar Omega microplate reader (BMG Labtech, Ortenberg). ApoB level was calculated utilizing a four-parameter standard curve, and normalized to the total cellular protein content and expressed in comparison to control cells.

[4] = test system: HepaRG cells; experiment: Number of nuclei (Hoechst 33342) in HepaRG cells; assay type: cell-based, human; settings: HepaRG cells treated with TUDCA alone
[5] = test system: apolipoprotein C3 (APOC3); experiment: RT-qPCR APOC3 mRNA in HepaRG cells; assay type: cell-based, human; settings: 4 days, vs control
Protocol: as §1

[6] = test system: angiopoietin-like 3 (ANGPTL3); experiment: RT-qPCR ANGPTL3 mRNA in HepaRG cells; assay type: cell-based, human; settings: 4 days, vs control
Protocol: as §1

[7] = test system: de novo lipogenesis (DNL); experiment: DNL from [2-14C]acetic acid in HepaRG cells; assay type: cell-based, human; settings: 4 days, vs control
Protocol: as §2
DNL was assessed by measuring newly synthesized radiolabeled lipids from [2-^14C]acetic acid, using a protocol adapted from Byrne et al. ([2014]). Briefly, culture medium was removed and cells were washed with warm PBS. Next, cells were incubated for 3 h with phenol red-free William’s E medium containing 1% fatty acid-free BSA, [2-^14C]acetic acid (1850 Bq per well, corresponding to 19.4 pM) and 50 μM cold acetic acid. Medium was then gently removed and cells were washed with warm PBS before adding a mix of hexane/isopropanol (3:2; v/v). Cell culture plates were sealed and incubated for 1 h at room temperature for lipid extraction. After transfer of the plate content in 200-μL microtubes, hexane and PBS were added to have a hexane/isopropanol/PBS ratio of 6:2:3 (v/v/v). Microtubes were then centrifuged at 1000×g for 5 min and radiolabeled lipids were counted in the upper phase with a Tri-Carb 4910TR liquid scintillation counter (PerkinElmer). Results were normalized to total protein content and expressed in comparison to control cells.

[8] = test system: ERN1 (IRE1α); experiment: RT-qPCR ERN1 mRNA in HepaRG cells; assay type: cell-based, human; settings: 4 days, vs control
Protocol: as §1

[9] = test system: mitochondrial fatty acid oxidation (mtFAO); experiment: mtFAO with [U-14C]palmitic acid in HepaRG cells; assay type: cell-based, human; settings: 4 days, vs control
Protocol: as §2
Results were normalized to total protein content determined using the Pierce BCA assay kit from Thermo Fischer Scientific (Waltham, MA). Results were expressed in comparison to control cells.

[10] = test system: prolyl 4-hydroxylase subunit beta (P4HB, also known as PDI); experiment: RT-qPCR P4HB mRNA in HepaRG cells; assay type: cell-based, human; settings: 4 days, vs control
Protocol: as §1

[11] = test system: HSPA5 (BIP); experiment: RT-qPCR HSPA5 mRNA in HepaRG cells; assay type: cell-based, human; settings: 4 days, vs control
Protocol: as §1

[12] = test system: DDIT3 (CHOP); experiment: RT-qPCR DDIT3 mRNA in HepaRG cells; assay type: cell-based, human; settings: 4 days, vs control
Protocol: as §1

[13] = test system: microsomal triglyceride transfer protein (MTTP); experiment: RT-qPCR MTTP mRNA in HepaRG cells; assay type: cell-based, human; settings: 4 days, vs control
Protocol: as §1

[14] = TUDCA 2 or 4 mM with 750 μM ALLO, 300 μM INDO, 300 μM RIF or 10 μM tunicamycin

## C[C@H](CCC(=O)NCCS(=O)(=O)O)[C@H]1CC[C@H]2[C@@H]3[C@@H](O)C[C@@H]4C[C@H](O)CC[C@]4(C)[C@H]3CC[C@]12C [TUDCA, tauroursodeoxycholic acid]
[1]; [14]
  Effect on APOB mRNA level in cells cotreated with ALLO, INDO, RIF or tunicamycin: higher apoB mRNA level
[2]; [14]
  Effect on neutral lipid accumulation induced by ALLO, INDO, RIF or tunicamycin: alleviate neutral lipid accumulation
[3]; [14]
  Effect on apoB secretion in cells cotreated with ALLO, INDO, RIF or tunicamycin: improved apoB secretion
[4]
  Increase in the number of nuclei: 38%

## C/C=C(/C)C(=O)O[C@H]1C(C)=C2[C@H]([C@@H]1OC(=O)CCCCCCC)[C@@](C)(OC(C)=O)C[C@H](OC(=O)CCC)[C@@]1(O)[C@H]2OC(=O)[C@@]1(C)O [thapsigargin]
[5]
  APOC3 mRNA level: reduced the mRNA level
[6]
  ANGPTL3 mRNA level: reduced the mRNA level
[7]
  Effect on DNL: strongly reduced DNL
[8]
  ERN1 (IRE1α) mRNA level: augmented the mRNA level
[1]; vs control
  APOB mRNA level: also reduced APOB mRNA abundance
[9]
  Effect on mtFAO: increased mtFAO
[3]
  Effect on apoB secretion: reduced secretion of apoB
[10]
  P4HB (PDI) mRNA level: induced
[11]
  HSPA5 (BIP) mRNA level: augmented the mRNA level
[12]
  DDIT3 (CHOP) mRNA level: augmented the mRNA level
[13]
  MTTP mRNA level: reduced the mRNA level

## tunicamycin
[5]
  APOC3 mRNA level: reduced the mRNA level
[6]
  ANGPTL3 mRNA level: reduced the mRNA level
[7]
  Effect on DNL: strongly reduced DNL
[8]
  ERN1 (IRE1α) mRNA level: augmented the mRNA level
[2]; selected concentrations (ATP loss < 30%, not above 100 × Cmax), vs control
  Accumulation of neutral lipids (steatosis): increased neutral lipids
[9]
  Effect on mtFAO: increased mtFAO
[3]
  Effect on apoB secretion: reduced secretion of apoB
[10]
  P4HB (PDI) mRNA level: induced
[11]
  HSPA5 (BIP) mRNA level: augmented the mRNA level
[12]
  DDIT3 (CHOP) mRNA level: augmented the mRNA level
[13]
  MTTP mRNA level: reduced the mRNA level
